The results in this text go back to US20240024251A1, “POLYSACCHARIDE ENCAPSULATED OXYGEN NANOBUBBLES” (THE BOARD OF TRUSTEES OF THE UNIVERSITY OF ILLINOIS, priority 2020, published 2024).

This series relates to R-28 and ARPE-19 cell line. Particulars: rat (R-28), human (ARPE-19), 48 h.

Procedure: The biosafety of DONBs and excipients used in the formulation was evaluated on retinal precursor cells R-28 and retinal pigment epithelial cells (ARPE-19). The suspensions of the following cell line (100 μL, −60,000 cells/mL) were seeded into each well of a 96-well plate and cultured overnight. The cells were cultured for 24 h in the dark.
Excipient toxicity studies on ARPE-19 and R28 cell line. Cell viability was conducted with ARPE-19 and R28 cell lines, in response to treatment with nanobubble excipients, using the [3-(4, 5-dimethylthiazol-2-yl)-2, 5-diphenyl tetrazolium bromide](MTT) assay. The MTT reagent (Cat no. M6494, Thermo Fisher Scientific) was prepared by dissolving 5 mg of MTT per 1 ml of phosphate-buffered saline (Cat no. 21-040-CV, Corning), filter sterilized using a 0.22 μm filter, and stored in dark at 4° C. Yellow MTT is reduced to purple formazan in the mitochondria of living cells. Cells were grown to 80-90% confluence in a T-25 flask, dissociated using trypsin, and seeded into a 96-well plate at a density of 10000 cells per well. […] The absorbance was measured at 590 nm with a reference filter of 620 nm.

On to `OC[C@H]1O[C@H](O[C@H]2O[C@H](CO)[C@@H](O)[C@H](O)[C@H]2O)[C@H](O)[C@@H](O)[C@@H]1O` [Trehalose, D-(+)-Trehalose dihydrate], for which the “excipient concentration producing some toxic effect on cell viability” value lay in the range of 0.6 to 0.7 mg.
